In patent US12084479B2, “Modified antimicrobial peptide derived from an arginine-rich domain” (priority 2016, dated 2024):
In brackets after ≈: the same amount, converted by molar mass. Where two headings read alike, the source gives them in different places. Where a SMILES comes first, the peptide text is derived from it. Where no end group is shown, it is not given here. [ ]: non-standard residue; d: D form.

Tests used:
[1] = Protease resistance assay (serum stability), SDS-PAGE and Green Angel staining; assay type: in vitro ADME; conditions: 5% bovine serum, 37° C.
Method: To compare the stability of the 37-mer L- and D-HBcARD peptides against serum protease degradation, we performed a protease resistance assay. After incubation with 5% bovine serum at 37° C. for 3 hours, more than 80% of L-HBcARD peptide was no longer detectable by staining with Green Angel on SDS-PAGE. In contrast, the signal intensity of the D-HBcARD peptide was not reduced under the same condition.
L- and D-HBcARD peptides (0.5 nmol) were mixed with MBC buffer in the presence or absence of 5% serum collected from bovine, mouse and human origins. After incubation at 37° C. for 3 hours, the amounts of peptides surviving the protease digestion were determined by SDS-PAGE electrophoresis and staining with Green Angel. The images were quantified using image J software and the intensities were normalized with the no serum control. To investigate the effect of serum on the antimicrobial activity of HBcARD peptides, L- and D-HBcARD peptides at their respective MBC concentrations were incubated with S. aureus ATCC19636 strain (10^6 CFU/ml) at 37° C. for three hours. Bacteria were plated on MH agar and the antimicrobial activity was determined by colony formation.

A. baumannii = assay type: cell-based, Acinetobacter baumannii
Method: (§1) The antimicrobial activities of HBcARD peptides were tested using a number of bacterial strains, including Pseudomonas aeruginosa Migula strains (ATCC 27853, ampicillin-resistant and ATCC 9027, ampicillin-resistant), Klebsiella pneumoniae strain (ATCC 13884), Shigella dysenteriae Xen27 (Caliper Co.), Escherichia coli strain (ATCC 25922), Staphylococcus aureus subsp. strains (ATCC 25923, methicillin-resistantATCC 29213, methicillin-resistant and ATCC 19636, methicillin-resistant) and Acinetobacter baumannii strains (ATCC 17978, ATCC 17978 CR, ATCC19606, ATCC 19606 CR, TCGH 45530 and TCGH 46709). Clinical isolates TCGH 45530 and TCGH 46709 were obtained from Tzu-Chi Buddhist General Hospital (TCGH) in Taiwan, and were identified using the Vitek system (Biomerieux Vitek, Inc., Hazelwood, MO, USA). See Chang et al. (2012), J Microbiol Immunol Infect 45:37-42 doi:10.1016/j.jmii.2011.09.019.
(§2) L- and D-HBcARD peptides were purchased from Yao-Hong Biotechnology Inc. (Taipei, Taiwan). Antimicrobial activity was determined as described. See, Chen et al., 2013. Briefly, bacteria were grown in MH broth (Difco) to mid-logarithmic phase at 37° C., and were diluted to 10^6 CFU (colony formation unit)/ml in phosphate buffer (10 mM sodium phosphate and 50 mM sodium chloride, pH 7.2). Peptides were serially diluted in the same buffer. Fifty microliters (μl) of bacteria were mixed with fifty μl of peptides at varying concentrations, followed by incubation at 37° C. for 3 hours without shaking. At the end of incubation, bacteria were placed on Mueller-Hinton broth agar plates, and allowed to grow at 37° C. overnight for measurement of minimal bactericidal concentration (MBC).
(§3) All peptides were tested in triplicate.

S. aureus ATCC 19636 = assay: Immunogenicity: sepsis model in peptide-immunized mice; assay type: in vivo, ICR mice; conditions: immunized three times with 5 mg/kg peptide
Method: FIG. 4 is a set of graphs showing comparison of in vivo protection activities between L- and D-form HBcARD peptides in a mouse sepsis model infected with S. aureus. (A) Three week-old ICR mice were inoculated with S. aureus (4×10^6 CFU/mouse) and i.p. injected with PBS, L-HBcARD, or D-HBcARD at 2 hours post-inoculation. Each group contained ten mice. (B) and (C) Three week-old ICR mice were immunized with L- and D-HBcARD peptides (5 mg/kg), respectively, at day 0, 3 and 6. On day 14, the mice were inoculated with S. aureus (4×10^6 CFU/mouse) and i.p. injected with PBS, L-HBcARD or D-HBcARD (10 mg/kg) at 1 hour post-inoculation, respectively. Another group of mice were treated with PBS in parallel as a control. Each group of animals contained five mice. *P<0.05; ***P<0.0001; ns, no significance.
To investigate whether repeated treatments with the 37-mer HBcARD peptides may compromise the efficacy by inducing neutralization antibody in vivo, we immunized 3-week old mice three times with L- and D-HBcARD peptides, respectively, prior to bacterial infection. […]
To investigate the potential immunogenicity of HBcARD peptides, we determined the in vivo antimicrobial activity of HBcARD peptide in peptide-immunized mice. […] Mortality was monitored daily for 7 days following the bacterial inoculation.

P. aeruginosa = assay type: cell-based, Pseudomonas aeruginosa
Method: as §1, §2, §3

[2] = test system: human red blood cells (hRBCs); assay: Hemolytic activity; assay type: cell-based; conditions: up to 460 mg/L, 37° C., one hour
Method: In the hemolysis assay, human RBCs were incubated with serially-diluted doses (0 to 460 mg/L) of D-HBcARD, L-HBcARD, or melittin, at 37° C. for one hour.
The hemolytic activities of peptides were determined by hemolysis against human red blood cells (hRBCs). Human blood was obtained in EDTA-containing tube and was centrifuged at 450 g for 10 min. The pellet was washed three times with PBS buffer, and a solution of 10% hRBCs was prepared. hRBCs solution was mixed with serial dilutions of peptides in PBS buffer, and the reaction mixtures were incubated for 1 h at 37° C. After centrifugation at 450 g for 10 min, the percentage of hemolysis was determined by measuring the absorbance at the wavelength of 405 nm of the supernatant. Blank and 100% hemolysis were determined in PBS buffer and in the presence of 1% Triton X-100, respectively.

S. dysenteriae Xen27 = assay type: cell-based, Shigella dysenteriae
Method: as §1
L- and D-HBcARD peptides were purchased from Yao-Hong Biotechnology Inc. (Taipei, Taiwan). Antimicrobial activity was determined as described. See, Chen et al., 2013. Briefly, bacteria were grown in MH broth (Difco) to mid-logarithmic phase at 37° C., and were diluted to 10^6 CFU (colony formation unit)/ml in phosphate buffer (10 mM sodium phosphate and 50 mM sodium chloride, pH 7.2). Peptides were serially diluted in the same buffer. […]

E. coli = assay type: cell-based, Escherichia coli
Method: as §1, §2, §3

S. aureus = assay type: cell-based, Staphylococcus aureus
Method: as §1, §2, §3

K. pneumoniae = assay type: cell-based, Klebsiella pneumoniae
Method: as §1, §2, §3

[3] = test system: colistin-resistant A. baumannii TCGH 46709; assay: Mouse lung infection model, intra-tracheal inoculation; assay type: in vivo, BALB/c mice; conditions: 5 mg/kg/day ip.
Method: FIG. 6 is a graph showing in vivo protection efficacies of 150-177C and 150-177Q peptides in a BALB/c mouse lung infection model. Colistin-resistant A. baumannii was inoculated via intra-tracheal route.
BALB/c mice (n=8/group) were intra-tracheally inoculated with colistin-resistant A. baumannii TCGH 46709 (3.4×10^8 cfu/mouse). These lung-infected mice were ip. treated with colistin (5 mg/kg/day) or D-150-177C (5 and 10 mg/kg/day), respectively.

Compound	signal intensity of the peptide after serum incubation ([1]; 3 hours)	MBC (A. baumannii) [µg/mL]	neutralization activity induced by prior immunizations (S. aureus ATCC 19636)	Minimal bactericidal concentration (P. aeruginosa) [µg/mL]	hemolytic activity [2]	Minimal bactericidal concentration (S. dysenteriae Xen27; S. dysenteriae Xen27) [µg/mL]	Minimal bactericidal concentration (E. coli) [µg/mL]	MBC (S. aureus) [µg/mL]	metabolised at 3 h ([1]; read-out: peptide no longer detectable by staining with Green Angel on SDS-PAGE) [%]	Minimal bactericidal concentration (K. pneumoniae) [µg/mL]	Minimal bactericidal concentration (S. dysenteriae Xen27) [µg/mL]	Minimal bactericidal concentration (S. aureus) [µg/mL]	survival outcome [3]
CC(C)[C@H](NC(=O)[C@@H](NC(=O)[C@@H](N)[C@@H](C)O)C(C)C)C(=O)N[C@H](CCCNC(=N)N)C(=O)N[C@H](CCCNC(=N)N)C(=O)N[C@H](CCCNC(=N)N)C(=O)NCC(=O)N[C@H](CCCNC(=N)N)C(=O)N[C@@H](CO)C(=O)N1CCC[C@H]1C(=O)N[C@H](CCCNC(=N)N)C(=O)N[C@H](CCCNC(=N)N)C(=O)N[C@H](CCCNC(=N)N)C(=O)N[C@H](C(=O)N1CCC[C@H]1C(=O)N[C@@H](CO)C(=O)N1CCC[C@H]1C(=O)N[C@H](CCCNC(=N)N)C(=O)N[C@H](CCCNC(=N)N)C(=O)N[C@H](CCCNC(=N)N)C(=O)N[C@H](CCCNC(=N)N)C(=O)N[C@@H](CO)C(=O)N[C@@H](CCC(N)=O)C(=O)N[C@@H](CO)C(=O)N1CCC[C@H]1C(=O)N[C@H](CCCNC(=N)N)C(=O)N[C@H](CCCNC(=N)N)C(=O)N[C@H](CCCNC(=N)N)C(=O)N[C@H](CCCNC(=N)N)C(=O)N[C@@H](CO)C(=O)N[C@@H](CCC(N)=O)C(=O)N[C@@H](CO)C(=O)N[C@H](CCCNC(=N)N)C(=O)N[C@@H](CCC(=O)O)C(=O)N[C@@H](CO)C(=O)N[C@@H](CCC(N)=O)C(=O)N[C@@H](CS)C(=O)O)[C@@H](C)O [D-HBcARD, TVVrrrGrSPrrrTPSPrrrrSQSPrrrrSQSrESQC] (H-TVV[dR][dR][dR]G[dR]SP[dR][dR][dR]TPSP[dR][dR][dR][dR]SQSP[dR][dR][dR][dR]SQS[dR]ESQC-OH; N-terminus and C-terminus assumed)	not reduced	2.3 to 4.6	no neutralization activity	4.6 (≈ 1 µM)	no hemolytic activity	73.6 (≈ 16 µM)	73.6 (≈ 16 µM)	4.6 to 9.2	–	–	–	–	–
TVVRRRGRSPRRRTPSPRRRRSQSPRRRRSQSRESQC [L-HBcARD]	–	–	no neutralization activity	–	no hemolytic activity	–	18.4	–	> 80	9.2	18.4	18.4	–
colistin	–	–	–	–	–	–	–	–	–	–	–	–	died at 60 hours post-inoculation
